We go through ten compounds from patent publication US9283224B2, “Substituted pyrimidinyl-pyrroles active as kinase inhibitors” (NERVIANO MEDICAL SCIENCES S.R.L., priority 2012, dated 2016).

For assay [1], the system named is JAK2 dependent human megakaryoblastic leukemia cell line SET-2. The assay is described as follows: Cell proliferation assay (CellTiter-Glo, 72 hours), SET-2. The conditions noted are these: for pIC50: Homo sapiens, read-out: SET-2 IC50; for Ratio K-562 (IC50)/SET-2 (IC50): selectivity for JAK2 dependent SET-2 vs JAK2 independent K-562 cell line. The format is cell-based. Here is the method:
(§1) the JAK2 dependent human megakaryoblastic leukemia cell line SET-2 (DSMZ, Braunschweig GERMANY), and JAK2 independent human chronic myelogenous leukaemia cell line K562 (ECACC, Wiltshire, UK) were cultured in RPMI-1640 medium-Glutamax (Gibco BRL, Gaithesburg, Md., USA), supplemented with 10% fetal bovine serum (FBS) at 37° C. and 5% CO2.
(§2) Approximately 5×10^3 cells were plated into 384 microtiter plate wells in 50 μL of growth media with different concentrations of inhibitors. The cells were incubated at 37° C. and 5% CO2 for 72 hours, than the plates were processed using CellTiter-Glo assay (Promega, Madison, Wis., USA) following the manufacturer's instruction. Briefly 25 μL/well reagent solution are added to each wells and after 5 minutes shacking micro-plates are read by Envision luminometer (PerkinElmer, Waltham, Mass., USA).
(§3) Data are analyzed by Symix Assay Explorer software (Symix Technologies Inc.) that provides sigmoidal fitting algorithm of the 8 points dilutions curves for […] determination.

The next assay has as its target T1, JAK2 kinase domain (Homo sapiens, UniProt O60674).
T1 construct: commercially available JAK2 kinase domain (Invitrogen, Eugene, Oreg.); purchased Invitrogen, Eugene, Oreg
Briefly: Biochemical assay for inhibitors of JAK2 kinase activity (33P-γ-ATP, dowex resin). The conditions noted are these: 1 nM enzyme, 60 μM ATP, 60 minutes at room temperature. Here is the method:
Specific JAK2, JAK1 or JAK3 peptide substrates are trans-phosphorylated by JAK kinases in the presence of ATP traced with 33P-γ-ATP. At the end of the phosphorylation reaction, the unreacted ATP, cold and radioactive, is captured by an excess of dowex ion exchange resin that eventually settles by gravity to the bottom of the reaction plate. The supernatant is subsequently withdrawn and transferred into a counting plate that is then evaluated by β-counting.
500 g of wet resin (SIGMA, custom prepared resin DOWEX 1×8 200-400 mesh, 2.5 Kg) is weighed out and diluted 2 to 1 in 150 mM sodium formate, pH 3.00. The resin is allowed to settle overnight and then the supernatant is discarded. After three washes as above over a couple of days, the resin is allowed to settle and two volumes (with respect to the resin volume) of 150 mM sodium formate buffer are added.
Kinase buffer was composed of 50 mM HEPES pH 7.5 containing 10 mM MgCl2, 2.5 mM DTT, 10 μM Na3VO4 and 0.2 mg/mL BSA.
The peptidic substrate was purchased from American Peptide Company (Sunnyvale, Calif.).
An automated station for serial dilutions (Biomek FX, Beckman) is used for producing 1:3 dilutions in 100% DMSO, from line A1 to A10, and for all the compounds in the column.
At the start of the run, the robot aspirates 5 μL of ATP mix, makes an air gap inside the tips (3 μl) and aspirates 5 μL of JAK2 mix. The following dispensation into the plates plus 3 cycles of mixing, done by the robot itself, starts the kinase reaction. At this point, the correct concentrations are restored for all the reagents. The robot incubates the plates for 60 minutes at room temperature, and then stops the reaction by pipetting 60 μL of dowex resin suspension into the reaction mix. In order to avoid tip clogging, wide bore tips are used to dispense the resin suspension. Three cycles of mixing are done immediately after the addition of the resin. Another mixing cycle is performed after all the plates are stopped, this time using normal tips: the plates are then allowed to rest for about one hour in order to allow resin sedimentation. At this point, 27 μL of the supernatant are transferred into 384-Optiplates (Perkin-Elmer), with 50 μL of Microscint 40 (Perkin-Elmer); after 5 min of orbital shaking the plates are read on a Perkin-Elmer Top Count radioactivity counter.
Data are analyzed by an internally customized version of the SW package “Assay Explorer” that provides sigmoidal fitting of the ten-dilutions curves for IC50 determination in the secondary assays/hit confirmation routines.

The subject of assay [2] is JAK2 independent human chronic myelogenous leukaemia cell line K562. The assay is described as follows: Cell proliferation assay (CellTiter-Glo, 72 hours), K562. The class given is cell-based. The conditions noted are these: K562 cells, read-out: K-562 IC50. Here is the method:
as §1, §2, §3

pIC50: −log10 of the molar value. Read-outs that look alike come from different tables or passages of the source. A value given as a limit tells only on which side of the number the result lay.

T1 sequence (O60674 849-1124 limits assumed): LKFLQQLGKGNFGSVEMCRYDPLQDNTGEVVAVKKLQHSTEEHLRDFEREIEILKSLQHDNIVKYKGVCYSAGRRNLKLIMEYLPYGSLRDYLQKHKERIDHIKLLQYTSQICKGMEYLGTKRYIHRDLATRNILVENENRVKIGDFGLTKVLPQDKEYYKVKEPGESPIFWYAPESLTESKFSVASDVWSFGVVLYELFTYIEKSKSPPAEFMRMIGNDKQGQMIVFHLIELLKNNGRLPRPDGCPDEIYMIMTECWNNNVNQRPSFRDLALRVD

The pIC50 is the IC50 on a negative log10 scale, so that one unit is a factor of ten. On to `CCc1ccc(C(F)(F)F)cc1-c1[nH]c(-c2ccnc(N)n2)cc1C(=O)NC` [Cmpd. 51, 5-(2-Aminopyrimidin-4-yl)-2-[2-ethyl-5-(trifluoromethyl)phenyl]-N-methyl-1H-pyrrole-3-carboxamide], for which the pIC50 in assay [1] (SET-2 cells, 72 hours) was 6.51; on JAK2 kinase domain it was 8.70; in assay [2] it was less than 5.00. For the same compound, in assay [1], the “Ratio K-562 (IC50)/SET-2 (IC50)” value is more than 20.

For `CCc1ccc(C(F)(F)F)cc1-c1[nH]c(-c2ccnc(N)n2)cc1C(N)=O` [Cmpd. 16, 5-(2-Aminopyrimidin-4-yl)-2-[2-ethyl-5-(trifluoromethyl)phenyl]-1H-pyrrole-3-carboxamide], the pIC50 in assay [1] (SET-2 cells, 72 hours) was 6.41; against JAK2 kinase domain it was 8.70; in assay [2] it was 5.43. For the same compound, the “Ratio K-562 (IC50)/SET-2 (IC50)” value in assay [1] came out at 9.43.

On to `NC(=O)c1cc(-c2ccnc(N)n2)[nH]c1-c1cc(Cl)ccc1Cl` [Cmpd. 2, 5-(2-Aminopyrimidin-4-yl)-2-(2,5-dichlorophenyl)-1H-pyrrole-3-carboxamide], for which the negative logarithm of the IC50 (pIC50) is 6.15 in assay [1] (SET-2 cells, 72 hours); 7.92 against JAK2 kinase domain; 5.16 in assay [2]. In assay [1], the “Ratio K-562 (IC50)/SET-2 (IC50)” value is listed as 9.8.

On to `CCc1ccc(Cl)cc1-c1[nH]c(-c2ccnc(N)n2)cc1C(N)=O` [Cmpd. 5, 5-(2-Aminopyrimidin-4-yl)-2-(5-chloro-2-ethylphenyl)-1H-pyrrole-3-carboxamide], for which the pIC50 in assay [1] (SET-2, 72 h) is 6.68; in assay [2] it was 5.27.

Turning to `CNC(=O)c1cc(-c2ccnc(N)n2)[nH]c1-c1cc(C(F)(F)F)ccc1Cl` [Cmpd. 39, 5-(2-Aminopyrimidin-4-yl)-2-[2-chloro-5-(trifluoromethyl)phenyl]-N-methyl-1H-pyrrole-3-carboxamide], the pIC50 is 6.20 in assay [1] (SET-2 cells, 72 hours) and less than 5.00 in assay [2]. For the same compound, the “Ratio K-562 (IC50)/SET-2 (IC50)” value in assay [1] is reported as more than 16.

Turning to `CCc1ccc(Cl)cc1-c1[nH]c(-c2ccnc(N)n2)cc1C(=O)NC` [Cmpd. 35, 5-(2-Aminopyrimidin-4-yl)-2-(5-chloro-2-ethylphenyl)-N-methyl-1H-pyrrole-3-carboxamide], the pIC50 was 6.31 in assay [1] (SET-2 cells, 72 hours); 8.05 at JAK2 kinase domain; less than 5.00 in assay [2]. Further, in assay [1], the “Ratio K-562 (IC50)/SET-2 (IC50)” value is recorded as more than 20.

Turning to `NC(=O)c1cc(-c2ccnc(N)n2)[nH]c1-c1cc(C(F)(F)F)ccc1Cl` [Cmpd. 1, 5-(2-Aminopyrimidin-4-yl)-2-[2-chloro-5-(trifluoromethyl)phenyl]-1H-pyrrole-3-carboxamide], the pIC50 was 6.24 in assay [1] (SET-2 cells, 72 hours); 8.10 on JAK2 kinase domain; 5.12 in assay [2]. The “Ratio K-562 (IC50)/SET-2 (IC50)” value in assay [1] is listed as 13.

With `Cc1ccc(Cl)cc1-c1[nH]c(-c2ccnc(N)n2)cc1C(N)=O` [Ref. cmpd. (F25), 5-(2-amino-pyrimidin-4-yl)-2-(5-chloro-2-methyl-phenyl)-1H-pyrrole-3-carboxamide, reference compound], the negative logarithm of the IC50 (pIC50) in assay [1] (SET-2, 72 h) was 6.37; in assay [2] it was 5.70.

Consider `CNc1nccc(-c2cc(C(N)=O)c(-c3cc(Cl)ccc3C)[nH]2)n1` [Cmpd. 42, 2-(5-Chloro-2-methylphenyl)-5-[2-(methylamino)pyrimidin-4-yl]-1H-pyrrole-3-carboxamide], for which the pIC50 in assay [2] was less than 5.00.

Turning to `CCNC(=O)c1cc(-c2ccnc(N)n2)[nH]c1-c1cc(Cl)ccc1CC` [Cmpd. 36, 5-(2-Aminopyrimidin-4-yl)-2-(5-chloro-2-ethylphenyl)-N-ethyl-1H-pyrrole-3-carboxamide], the pIC50 in assay [1] (SET-2 cells, 72 hours) was 6.21; at JAK2 kinase domain it was 7.89; in assay [2], less than 5.00. Besides, in assay [1], the “Ratio K-562 (IC50)/SET-2 (IC50)” value is reported as more than 16.
